Measured values taken from a compilation of properties of binary mixtures (doi:10.1016/j.molliq.2022.120410).

Assay: xn = mol fraction of the nth substance listed
Settings: 101.3 kPa

OCCOCCO + CC[NH3+].O=[N+]([O-])[O-]
x2 = 0
Settings | speed of sound [m/s]
298.1 K | 1580.6
308.1 K | 1556.6

CC[NH3+].O=[N+]([O-])[O-] + OCCOCCO
speed of sound [m/s]
Settings | 298.1 K | 308.1 K | 318.1 K
x1 = 0.0488 | 1599.6 | 1576.8 | 1553.8
x1 = 0.0983 | 1614.6 | 1592 | 1569.5
x1 = 0.197 | 1632 | 1609.6 | 1587.5
x1 = 0.2961 | 1639.9 | 1619.1 | 1598.3
x1 = 0.3955 | 1644.5 | 1625.4 | 1605.9
x1 = 0.4954 | 1643.9 | 1625.6 | 1607.3
x1 = 0.5955 | 1643.2 | 1626.3 | 1609.1
x1 = 0.6961 | 1641.7 | 1625.6 | 1609.1
x1 = 0.797 | 1640 | – | 1607.8
x1 = 0.8983 | 1638.6 | 1622.8 | 1607.3
x1 = 1 | – | 1624.7 | 1609.3
